Assay results reported in patent US20230218710A1, “METHOD OF TREATING CORONAVIRUS INFECTIONS” (priority 2020, published 2023).
Marks after values point to notes of the source that are not given here.

Columns and labels:
Apelin Receptor (APJ) = molecular target: T1, Apelin Receptor (APJ) (Homo sapiens, UniProt P35414); experiment: Phosphorylation of MEK1 in cultured cells overexpressing APJ; type: cell-based; conditions: 5 min, 100 nM Pyr-Apelin-13 = positive control, acetate salts
T1 construct: host or cells: CHO-K1 AGTRL1 Gi cells
T1 sequence (P35414 1-380): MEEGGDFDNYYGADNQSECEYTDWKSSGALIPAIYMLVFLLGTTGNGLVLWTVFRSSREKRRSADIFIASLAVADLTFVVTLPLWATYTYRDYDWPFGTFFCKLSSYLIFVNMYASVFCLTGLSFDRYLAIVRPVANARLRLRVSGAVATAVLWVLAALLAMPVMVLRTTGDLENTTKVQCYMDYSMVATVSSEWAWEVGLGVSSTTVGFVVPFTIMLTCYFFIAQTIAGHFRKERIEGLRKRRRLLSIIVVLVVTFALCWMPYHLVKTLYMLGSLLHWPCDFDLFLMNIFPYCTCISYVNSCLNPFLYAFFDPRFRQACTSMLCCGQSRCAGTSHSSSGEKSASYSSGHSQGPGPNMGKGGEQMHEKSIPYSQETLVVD
Experimental: Peptides were initially prepared as 100× stocks in H2O. […] Following a 5 min incubation, the supernatant was removed and the cells were placed on ice and washed twice with cold HBSS. The HBSS was removed and the cells were immediately lysed in 300 μl/well of 1× lysis buffer (CST 10× Lysis Buffer; Cell Signaling Technology; Danvers, Mass.); lysis buffer was supplemented with 1 mM PMSF (Millipore-Sigma; Saint Louis, Mo.) and Halt Protease/Phosphatase Inhibitor Cocktail (Thermo-Fisher; Waltham, Mass.) prior to use. The samples were then placed on ice for 10 min, the wells were scraped and lysates were centrifuged at 12,500 rpm for 10 min at 4° C., and p-MEK expression in each sample was measured using Phospho-MEK1 (Ser217/221) Sandwich ELISA kit according to manufacturer's instructions (Cell Signaling Technology; Danvers, Mass.). Absorbance was measured using a Cytation 3 plate reader at […] (BioTek; Winooski, Vt.). […] Each data point represents the average of duplicate assays.

[1] = test system: LPS-induced acute lung injury mouse model; experiment: LPS-induced acute lung injury model in mouse (Example 8); type: in vivo, mice; conditions: HCl salts; for Pro-inflammatory Cytokine Level IFNγ / Pro-inflammatory Cytokine Level IL-1β / Pro-inflammatory Cytokine Level IL-2 / Pro-inflammatory Cytokine Level IL-4 / Pro-inflammatory Cytokine Level IL-5 / Pro-inflammatory Cytokine Level IL-6 / Pro-inflammatory Cytokine Level IL-9 / Pro-inflammatory Cytokine Level IL-10 / Pro-inflammatory Cytokine Level IL-12p70 / Pro-inflammatory Cytokine Level IL-17A / Pro-inflammatory Cytokine Level IL-17A/F / Pro-inflammatory Cytokine Level IL-17C / Pro-inflammatory Cytokine Level IL-17E/IL-25 / Pro-inflammatory Cytokine Level IL-23 / Pro-inflammatory Cytokine Level IL-27p28/IL-30 / Pro-inflammatory Cytokine Level IL-31 / Pro-inflammatory Cytokine Level IP-10 / Pro-inflammatory Cytokine Level KC/GRO / Pro-inflammatory Cytokine Level MCP-1 / Pro-inflammatory Cytokine Level MIP-1α / Pro-inflammatory Cytokine Level MIP-2 / Pro-inflammatory Cytokine Level MIP-3α / Pro-inflammatory Cytokine Level TNFα: BALF; for Mean (SEM) Alveolar Neutrophil Infiltration Score / Mean (SEM) Interstitial Neutrophil Infiltration Score / Mean (SEM) Composite Lung Injury Score: histopathology; for Mean (SEM) Alveolar Neutrophil Infiltration Score / Mean (SEM) Interstitial Neutrophil Infiltration Score: 0-5 scale
Experimental: The effect of the peptides of the current invention on acute lung injury can be assessed in an LPS-induced acute lung injury mouse model by monitoring outcomes such as lung weight, fluid accumulation, cytokine secretion in blood or bronchoalveolar lavage fluid (BALF), neutrophil infiltration into lung tissues, and assessment of acute lung injury score by histopathology. Acute lung injury was induced in male C57BL/6 mice (6 to 8 weeks old) by intratracheal administration of 40 μL lipopolysaccharide (LPS) (Sigma Aldrich, St. Louis, Mo.) in PBS at 5 mg/kg. Control animals received intratracheal PBS alone. Animals (n=8 per treatment group) induced with LPS received intraperitoneal treatment with: PBS (vehicle control) or test peptides at 5 or 15 mg/kg in water. Treatments were administered 1 h prior to LPS for animals designated for termination at 4 h after LPS, or at both 1 h prior to and 6 h after LPS for animals designated for termination at 24 h after LPS. At 4 or 24 hours post-LPS administration, tissues were harvested. Lungs were weighed and flushed with Hanks Buffer to provide bronchoalveolar lavage fluid (BALF). Lungs collected at 24 h were fixed in 10% neutral buffered formalin (NBF) for histopathology. Tissue slides were stained with hematoxylin and eosin (H&E) and evaluated and scored with light microscopy of 5 representative microscopic fields (100× magnification) scoring on a 0-5 scale using standard methods (Matute-Bello G et al 2011. An Official American Thoracic Society Workshop Report: Features and Measurements of Experimental Acute Lung Injury in Animals. Am J Respir Cell Mol Biol 44:725-38). The average score for five fields was calculated for each animal. Levels of pro-inflammatory cytokines in BALF at 4 h were determined using a meso scale discovery (MSD) system. Data for test peptides were compared to the vehicle control group. Table 13 compares the lung weights following LPS induction and treatment with PBS (vehicle control), or peptides. Table 14 compares the levels of pro-inflammatory cytokines in BALF following LPS induction and treatment with PBS (vehicle control) or peptides. Table 15 compares the histopathology scores for infiltration of neutrophils into alveoli and interstitial lung tissue and the composite lung injury score following LPS induction and treatment with PBS (vehicle control) or peptides.

Substance: (PEG12)KRRLLGLVFQSLCG(dA) (KRRLLGLVFQSLCGA; N-terminal PEG12; C-terminal D-alanine; (1)..(1) PEG12; (15)..(15) D-Ala) [SEQ ID NO: 37]
- pMEK1 (% of Positive Control) (Apelin Receptor (APJ); 2.0 μM peptide): 8.7%
- pMEK1 (% of Positive Control) (Apelin Receptor (APJ); 10 μM peptide): 45.5%
- pMEK1 (% of Positive Control) (Apelin Receptor (APJ); 50 μM peptide): 79.4%
- Mean (SEM) Lung Weight ([1]; 4 h after LPS, 5 mg/kg i.p.): 0.279 (0.006) g
- Mean (SEM) Lung Weight ([1]; 4 h after LPS, 15 mg/kg i.p.): 0.280 (0.005) g
- Mean (SEM) Lung Weight ([1]; 24 h after LPS, 5 mg/kg i.p.): 0.286 (0.008)* g
- Mean (SEM) Lung Weight ([1]; 24 h after LPS, 15 mg/kg i.p.): 0.284 (0.007)* g
- Pro-inflammatory Cytokine Level IFNγ ([1]; 4 h after LPS, 5 mg/kg i.p.): 0.37 (0.07) pg/mL
- Pro-inflammatory Cytokine Level IL-1β ([1]; 4 h after LPS, 5 mg/kg i.p.): 68.3 (12.6) pg/mL
- Pro-inflammatory Cytokine Level IL-2 ([1]; 4 h after LPS, 5 mg/kg i.p.): 2.83 (0.45) pg/mL
- Pro-inflammatory Cytokine Level IL-4 ([1]; 4 h after LPS, 5 mg/kg i.p.): 1.63 (0.37) pg/mL
- Pro-inflammatory Cytokine Level IL-5 ([1]; 4 h after LPS, 5 mg/kg i.p.): 8.14 (1.35) pg/mL
- Pro-inflammatory Cytokine Level IL-6 ([1]; 4 h after LPS, 5 mg/kg i.p.): 9380 (1380) pg/mL
- Pro-inflammatory Cytokine Level IL-9 ([1]; 4 h after LPS, 5 mg/kg i.p.): 7.84 (0.67) pg/mL
- Pro-inflammatory Cytokine Level IL-10 ([1]; 4 h after LPS, 5 mg/kg i.p.): 32.2 (5.31) pg/mL
- Pro-inflammatory Cytokine Level IL-12p70 ([1]; 4 h after LPS, 5 mg/kg i.p.): 65.2 (15.9) pg/mL
- Pro-inflammatory Cytokine Level IL-17A ([1]; 4 h after LPS, 5 mg/kg i.p.): 2.22 (0.741) pg/mL
- Pro-inflammatory Cytokine Level IL-17A/F ([1]; 4 h after LPS, 5 mg/kg i.p.): 7.45 (2.46) pg/mL
- Pro-inflammatory Cytokine Level IL-17C ([1]; 4 h after LPS, 5 mg/kg i.p.): 0.66 (0.04) pg/mL
- Pro-inflammatory Cytokine Level IL-17E/IL-25 ([1]; 4 h after LPS, 5 mg/kg i.p.): 0.18 (0.10) pg/mL
- Pro-inflammatory Cytokine Level IL-23 ([1]; 4 h after LPS, 5 mg/kg i.p.): 0.08 (0.07) pg/mL
- Pro-inflammatory Cytokine Level IL-27p28/IL-30 ([1]; 4 h after LPS, 5 mg/kg i.p.): 13.7 (2.44) pg/mL
- Pro-inflammatory Cytokine Level IL-31 ([1]; 4 h after LPS, 5 mg/kg i.p.): 0.00 (0.00) pg/mL
- Pro-inflammatory Cytokine Level IP-10 ([1]; 4 h after LPS, 5 mg/kg i.p.): 2290 (341) pg/mL
- Pro-inflammatory Cytokine Level KC/GRO ([1]; 4 h after LPS, 5 mg/kg i.p.): 3120 (196) pg/mL
- Pro-inflammatory Cytokine Level MCP-1 ([1]; 4 h after LPS, 5 mg/kg i.p.): 1310 (225) pg/mL
- Pro-inflammatory Cytokine Level MIP-1α ([1]; 4 h after LPS, 5 mg/kg i.p.): 5660 (50.6) pg/mL
- Pro-inflammatory Cytokine Level MIP-2 ([1]; 4 h after LPS, 5 mg/kg i.p.): 3230 (25.1) pg/mL
- Pro-inflammatory Cytokine Level MIP-3α ([1]; 4 h after LPS, 5 mg/kg i.p.): 983 (75.1) pg/mL
- Pro-inflammatory Cytokine Level TNFα ([1]; 4 h after LPS, 5 mg/kg i.p.): 4070 (518) pg/mL
- Pro-inflammatory Cytokine Level IFNγ ([1]; 4 h after LPS, 15 mg/kg i.p.): 0.42 (0.10) pg/mL
- Pro-inflammatory Cytokine Level IL-1β ([1]; 4 h after LPS, 15 mg/kg i.p.): 91.5 (20.0) pg/mL
- Pro-inflammatory Cytokine Level IL-2 ([1]; 4 h after LPS, 15 mg/kg i.p.): 3.36 (0.55) pg/mL
- Pro-inflammatory Cytokine Level IL-4 ([1]; 4 h after LPS, 15 mg/kg i.p.): 1.75 (0.28) pg/mL
- Pro-inflammatory Cytokine Level IL-5 ([1]; 4 h after LPS, 15 mg/kg i.p.): 13.2 (2.05) pg/mL
- Pro-inflammatory Cytokine Level IL-6 ([1]; 4 h after LPS, 15 mg/kg i.p.): 11600 (1360) pg/mL
- Pro-inflammatory Cytokine Level IL-9 ([1]; 4 h after LPS, 15 mg/kg i.p.): 7.89 (1.31) pg/mL
- Pro-inflammatory Cytokine Level IL-10 ([1]; 4 h after LPS, 15 mg/kg i.p.): 31.5 (3.76) pg/mL
- Pro-inflammatory Cytokine Level IL-12p70 ([1]; 4 h after LPS, 15 mg/kg i.p.): 80.0 (21.8) pg/mL
- Pro-inflammatory Cytokine Level IL-17A ([1]; 4 h after LPS, 15 mg/kg i.p.): 2.82 (0.639) pg/mL
- Pro-inflammatory Cytokine Level IL-17A/F ([1]; 4 h after LPS, 15 mg/kg i.p.): 4.48 (0.59) pg/mL
- Pro-inflammatory Cytokine Level IL-17C ([1]; 4 h after LPS, 15 mg/kg i.p.): 0.69 (0.13) pg/mL
- Pro-inflammatory Cytokine Level IL-17E/IL-25 ([1]; 4 h after LPS, 15 mg/kg i.p.): 0.44 (0.29) pg/mL
- Pro-inflammatory Cytokine Level IL-23 ([1]; 4 h after LPS, 15 mg/kg i.p.): 0.06 (0.05) pg/mL
- Pro-inflammatory Cytokine Level IL-27p28/IL-30 ([1]; 4 h after LPS, 15 mg/kg i.p.): 15.5 (2.42) pg/mL
- Pro-inflammatory Cytokine Level IL-31 ([1]; 4 h after LPS, 15 mg/kg i.p.): 0.00 (0.00) pg/mL
- Pro-inflammatory Cytokine Level IP-10 ([1]; 4 h after LPS, 15 mg/kg i.p.): 3020 (547) pg/mL
- Pro-inflammatory Cytokine Level KC/GRO ([1]; 4 h after LPS, 15 mg/kg i.p.): 3260 (142) pg/mL
- Pro-inflammatory Cytokine Level MCP-1 ([1]; 4 h after LPS, 15 mg/kg i.p.): 1590 (178) pg/mL
- Pro-inflammatory Cytokine Level MIP-1α ([1]; 4 h after LPS, 15 mg/kg i.p.): 5490 (35.1) pg/mL
- Pro-inflammatory Cytokine Level MIP-2 ([1]; 4 h after LPS, 15 mg/kg i.p.): 3160 (34.2) pg/mL
- Pro-inflammatory Cytokine Level MIP-3α ([1]; 4 h after LPS, 15 mg/kg i.p.): 825 (46.9) pg/mL
- Pro-inflammatory Cytokine Level TNFα ([1]; 4 h after LPS, 15 mg/kg i.p.): 3910 (349) pg/mL
- Mean (SEM) Alveolar Neutrophil Infiltration Score ([1]; 24 h after LPS, 5 mg/kg i.p.): 1.50 (0.09)
- Mean (SEM) Interstitial Neutrophil Infiltration Score ([1]; 24 h after LPS, 5 mg/kg i.p.): 1.55 (0.14)
- Mean (SEM) Alveolar Neutrophil Infiltration Score ([1]; 24 h after LPS, 15 mg/kg i.p.): 1.60 (0.13)
- Mean (SEM) Interstitial Neutrophil Infiltration Score ([1]; 24 h after LPS, 15 mg/kg i.p.): 1.23 (0.11)
- Mean (SEM) Composite Lung Injury Score ([1]; 24 h after LPS, 5 mg/kg i.p.): 3.08 (0.17)
- Mean (SEM) Composite Lung Injury Score ([1]; 24 h after LPS, 15 mg/kg i.p.): 2.93 (0.22)
